{"source": "patent US10801071B2", "about": "“TGF(β)-MIR200-MIG6 pathway and its use in the treatment of cancer as an indicator of resistance to EGFR inhibitors” (THE JOHNS HOPKINS UNIVERSITY, priority 2014, dated 2020)", "key": {"Mig6": {"tested_on": "Mig6", "experiment": "Immunoblot analysis of Mig6 after inhibitor exposure in parental and TGFβ-induced H358 cells", "type": "cell-based, human", "conditions": "24 hours exposure", "experimental": "A. Protein lysates were extracted from indicated cell lines Immunoblot analysis was performed with antibodies against E-cadherin, vimentin and β-actin. […] C. […] Cells were collected at different time points and Immunoblot analysis was performed with indicated antibodies. […] Values were set at 100% for untreated controls. […] F. Protein lysates were extracted from H358 cells treated with TGFβ1 or control vehicle for 21 days and immunoblot analysis was performed with antibodies against indicated RTKs. β-actin was used as a loading control.\nAntibodies and immunoblot analysis. Pelleted cells were lysed on ice by adding RIPA lysis buffer (Thermo Scientific, Rockford, Ill.) supplemented with protease and phosphatase inhibitors (Roche, Basel, Switzerland). Protein concentrations were determined by the BCA method and lysates diluted in SDS sample buffer (Bio-Rad, Hercules, Calif.) prior to SDS-PAGE. Anti-Mig6 antibody was a gift from Dr. Ferby (Nature medicine. 2006; 12:568-73). β-actin was obtained from Abcam (Cambridge, Mass.). All other antibodies were obtained from Cell Signaling (Beverly, Mass.). Secondary horseradish peroxidase (HRP)-conjugated antibodies were from KPL (Gaithersburg, Md.) and signals developed using West-Pico chemiluminescence substrate (Thermo Scientific). ImageJ (ver 1.46) software was used to quantify immunoblot signals on exposed films. […]"}, "miR200c and miR205": {"tested_on": "miR200c and miR205", "experiment": "Quantitative real-time PCR for miR200c and miR205 after TGFβ blockade", "type": "cell-based, human", "conditions": "H1703 and JHU028 cells, TGFβ (2 ng/ml) plus SB-431542 (10 μM) for 7 days", "experimental": "(§1) Two erlotinib-resistant cell lines (JHU028 and H1703) were treated with TGFβ (2 ng/ml) alone or in combination with SB-431542 (10 μM) for 7 days. A. Cell lysates were collected and subjected to immunoblot analysis with indicated antibodies. B. Levels of miR200c and miR205 were measured and relative expression is presented as ΔΔCt. C. […] Cell viability was assayed and values were set at 100% for untreated controls.\n(§2) Quantitative real-time PCR for miRNA. RNA from cultured cells was extracted using the mirVana™ Kit (Ambion, Austin, Tex.). Total RNA from fresh frozen tumors was isolated using the Trizol reagent (Invitrogen, Carlsbad, Calif.). Specific quantitative real-time PCR was carried out using TaqMan MicroRNA Assays for miR200a, miR200b, miR200c, miR205 and control RNU6b (Applied Biosystems, Foster City, Calif.) on a 7900HT detector (Applied Biosystems, Foster City, Calif.).\n(§3) Autocrine or paracrine TGF3 signaling is required for the maintenance of the mesenchymal state. Blockage of this signaling can inhibit or reverse EMT by upregulating miR200 and subsequently downregulating ZEB1/2 (28-31). As a corollary to this observation, over-expression of miR-200c restores the sensitivity of resistant NSCLC cells to the anti-EGFR antibody cetuximab. […]"}, "[1]": {"tested_on": "AKT phosphorylation and Mig6 expression", "experiment": "Immunoblot analysis of AKT phosphorylation and Mig6 after TGFβ blockade", "type": "cell-based, human", "conditions": "H1703 and JHU028 cells, TGFβ (2 ng/ml) plus SB-431542 (10 μM) for 7 days", "experimental": "as §1\nAntibodies and immunoblot analysis. Pelleted cells were lysed on ice by adding RIPA lysis buffer (Thermo Scientific, Rockford, Ill.) supplemented with protease and phosphatase inhibitors (Roche, Basel, Switzerland). Protein concentrations were determined by the BCA method and lysates diluted in SDS sample buffer (Bio-Rad, Hercules, Calif.) prior to SDS-PAGE. Anti-Mig6 antibody was a gift from Dr. Ferby (Nature medicine. 2006; 12:568-73). β-actin was obtained from Abcam (Cambridge, Mass.). All other antibodies were obtained from Cell Signaling (Beverly, Mass.). Secondary horseradish peroxidase (HRP)-conjugated antibodies were from KPL (Gaithersburg, Md.) and signals developed using West-Pico chemiluminescence substrate (Thermo Scientific). ImageJ (ver 1.46) software was used to quantify immunoblot signals on exposed films.\nAutocrine or paracrine TGF3 signaling is required for the maintenance of the mesenchymal state. […]"}, "[2]": {"tested_on": "JHU028 and H1703 erlotinib-resistant cell lines", "experiment": "Cell viability assay, erlotinib sensitivity after TGFβ blockade", "type": "cell-based, human", "conditions": "TGFβ plus inhibitor (SB-431542 10 μM or TGFβ RII/Fc 20 ng/ml) 7 days, then 1 μM erlotinib 72 hours", "experimental": "as §1\nCell viability assay. Relative cell viability was determined using an Alamar Blue assay as outlined by the manufacturer (AbDSerotec, Raleigh, N.C.). New media containing 1/10 volume of Alamar Blue reagent was added to the wells and cells were incubated at 37° C. for 1 hour. Fluorescence (545 nm excitation, 590 nm emission wavelengths) was measured using a SpectraMax Plus384 fluorometer (Sunnyvale, Calif.). Cell viability was calculated relative to an untreated culture of cells incubated in parallel.\nas §3"}, "[3]": {"tested_on": "SCC-S, H358 and H292 erlotinib-sensitive epithelial cell lines", "experiment": "TGFβ-induced EMT, immunoblot of EMT markers and kinases", "type": "cell-based, human", "experimental": "FIGS. 2A-2F depict that increased production of TGFβ induces an EMT-associated kinase switch which promotes erlotinib-resistance of tumor cells. A. Protein lysates were extracted from indicated cell lines Immunoblot analysis was performed with antibodies against E-cadherin, vimentin and β-actin. B. Tumor cell supernatants of 25 cancer cell lines shown in A were collected and differential levels of TGFβ production were analyzed by ELISA. C. […] Cells were collected at different time points and Immunoblot analysis was performed with indicated antibodies. […] Values were set at 100% for untreated controls. […]\nAntibodies and immunoblot analysis. […] Protein concentrations were determined by the BCA method and lysates diluted in SDS sample buffer (Bio-Rad, Hercules, Calif.) prior to SDS-PAGE. […] ImageJ (ver 1.46) software was used to quantify immunoblot signals on exposed films.\nIncreased production of TGFβ induces an EMT-associated kinase switch that promotes erlotinib-resistance of tumor cells. […] To test whether TGFβ can promote this kinase switch, levels of phospho IGFR, PDGFR, FGFR and FAK kinases were assessed in response to treatment of erlotinib-sensitive cells (H358, H292 and SCC-S) with TGFβ1 for 21 days."}, "[4]": {"tested_on": "miR200 family members (200a, 200b, 200c and 205)", "experiment": "Real-time PCR of miR200 family after exposure to TGFβ", "type": "cell-based, human", "conditions": "SCC-S, H358 and H292 cells, exposure for 21 days", "experimental": "RNA was extracted and expression levels of miR200a, miR200b, miR200c and miR205 were quantified by real-time PCR. B. RNA was extracted from four sensitive/resistant cancer cell lines pairs. Levels of miR200a, miR200b, miR200c and miR205 were measured and relative expression is presented as average fold change of each miRNA in erlotinib-sensitive cell lines relatively to that in resistant cells, which was given a value 1. […] Relative quantification of miRNA expression was performed by using RNU6b as an internal control. The results are presented as expression average of each miRNA in erlotinib-sensitive cell lines relatively to that in erlotinib-resistant cells.\nas §2\nWe next examined changes in miR200 levels in erlotinib-sensitive (SCC-S) and erlotinib-resistant (SCC-R) isogenic H&N cell lines."}, "[5]": {"tested_on": "directly xenografted human NSCLC tumors", "experiment": "Erlotinib response of directly xenografted primary human tumors in nude mice", "type": "in vivo", "conditions": "lung tumors CTG-0167, CTG-0502, CTG-0199 and CTG-0157 with low EGFR and Mig6 expression, Erlotinib 35 mg/kg", "from_the_text": "Xenograft generation. […] The animals were maintained in accordance to guidelines of the American Association of Laboratory Animal Care and the research protocol was approved by the Johns Hopkins University Animal Use and Care Committee.\nWe obtained 18 human NSCLCs, and 27 pancreatic tumors that were directly xenografted into nude mice. No erlotinib-sensitizing mutations in EGFR were detected in any of these tumors and there was no correlation of KRAS mutation with erlotinib response. For all models tested, miR200 levels were measured by quantitative RT-PCR and mRNA levels of Mig6 and EGFR were determined by Affymetrix expression array. […] Supporting this observation, an inverse correlation between miR200c and Mig6 expression levels was noted across the pancreatic models (data not shown). […] Unlike the limited predictive ability of the Mig6/EGFR ratio in such tumors with low EGFR expression, the Mig6(mRNA)/miR200c ratio was still able to correctly identify three out of four of these lung tumors with low EGFR mRNA as erlotinib-resistant. Therefore, the ratio of Mig6 to miR200 was a reliable predictive biomarker of the primary tumors response to EGFR TKIs regardless of their EGFR status."}}}
{"molecule": "N#CC(=C(/N)Sc1ccccc1N)/C(C#N)=C(\\N)Sc1ccccc1N", "note": "[U0126]", "values": [{"measurement": "basal expression of Mig6", "setting": "Mig6", "value": "reduced basal expression of Mig6"}]}
{"molecule": "NC(=O)c1ccc(-c2nc(-c3ccc4c(c3)OCO4)c(-c3ccccn3)[nH]2)cc1", "note": "[SB-431542]", "values": [{"measurement": "miR200c levels", "setting": "miR200c and miR205", "value": "significant increase"}, {"measurement": "miR205 levels", "setting": "miR200c and miR205", "value": "significant increase"}, {"measurement": "AKT phosphorylation", "setting": "[1]", "value": "downregulation"}, {"measurement": "Mig6 expression", "setting": "[1]", "value": "downregulation"}, {"measurement": "sensitivity of tumor cells to erlotinib", "setting": "[2]", "value": "increased the sensitivity of tumor cells to erlotinib"}]}
{"molecule": "TGFβ1: TGFβ isoform used to treat erlotinib-sensitive cells for 21 days", "values": [{"measurement": "levels of phospho IGFR, PDGFR, FGFR and FAK kinases", "setting": "[3]; H358, H292 and SCC-S cells, TGFβ1 for 21 days, compared to untreated counterparts", "value": "significantly greater activity"}]}
{"molecule": "TGFβ", "values": [{"measurement": "EMT markers (loss of E-cadherin and upregulation of vimentin)", "setting": "[3]; time course 1-21 days, TGF-β1 or TGF-β3, SCC-S, H358 and H292 cells", "value": "complete EMT by day 14"}, {"measurement": "expression of the miR200 family members (200a, 200b, 200c and 205)", "setting": "[4]", "value": "significantly reduced"}]}
{"molecule": "C#Cc1cccc(Nc2ncnc3cc(OCCOC)c(OCCOC)cc23)c1", "note": "[erlotinib]", "values": [{"measurement": "basal expression of Mig6", "setting": "Mig6", "value": "reduced basal expression of Mig6"}, {"measurement": "erlotinib response of lung tumor xenografts", "setting": "[5]", "value": "erlotinib-resistant"}]}
